This note sets out measurements from patent US9422248B2 (University of Iowa Research Foundation, priority 2012, dated 2016).

Series [1] relates to maximal electroshock (MES) model. Kind of series: maximal electroshock (MES) model. Particulars: for responders at 30 mg/kg / responders at 100 mg/kg / responders at 300 mg/kg: Mus musculus, MES; for responders at 30 mg/kg: 30 mg/kg ip; for responders at 30 mg/kg / responders at 300 mg/kg: read-out: number of animals protected/number of animals tested; for responders at 100 mg/kg: 100 mg/kg ip, read-out: number of animals protected/number of animals tested (converted); for responders at 300 mg/kg: 300 mg/kg ip. Type of series: in vivo, mouse. From the text: (§1) All compounds (FIG. 1) were screened in three whole mouse models: the maximal electroshock model (MES), the scMET test (pentylenetetrazole, Metrazol), and the 6 Hz psychomotor seizure model of partial epilepsy (32 mA). Adult male CF No 1 albino mice (26-30 g) were used for the 6 Hz test and 18-25 g mice were used in the MES and scMet tests. The animals are housed, fed, and handled in a manner consistent with the recommendations in the National Council Publication, “Guide for the Care and Use of Laboratory Animals”. The animal studies were performed by the NINDS Anticonvulsant Screening Program under IACUC number 09-12014. All compounds were administered ip in polyethylene glycol, 30%.
(§2) The MES model, which generates generalized tonic-clonic seizures, involved pretreating mice with experimental compound, and administering 60 Hz of alternating current (50 mA) for 2 s via corneal electrodes. Prior to current administration, the animal's corneas were treated topically with 1% tetracaine. Animals are considered protected if the hindlimb tonic extensor component is absent. The scMET test was done by pretreating mice with experimental compound and administering 85 mg/kg Metrazol into the loose folds of the skin in the midline of the neck. Eighty-five mg/kg Metrazol is the dose that causes seizures in 97% (CD97) of control animals.

Series [2] has as its system scMET model (pentylenetetrazole, Metrazol). The experiment in a line: scMET test (subcutaneous Metrazol). Particulars: for responders at 30 mg/kg / responders at 100 mg/kg / responders at 300 mg/kg: Mus musculus, scMET, read-out: number of animals protected/number of animals tested; for responders at 30 mg/kg: 30 mg/kg ip; for responders at 100 mg/kg: 100 mg/kg ip; for responders at 300 mg/kg: 300 mg/kg ip. It is filed as in vivo, mouse.
Source text: as §1, §2

A further series deals with 6 Hz (32 mA) model. Kind of series: 6 Hz (32 mA) psychomotor seizure model of partial epilepsy. Particulars: for ED50: ip; for complete protection, animals: 6 Hz, one or more time points from 0.25 or 1 h; for antiseizure activity in the 6 Hz model: mouse, in vivo; for Protective effects, number of animals protected/number of animals tested: 100 mg/kg ip. It is filed as in vivo, mouse.
Source text: as §1
The 6 Hz test (also known as the minimal clonic seizure, or psychomotor test) involved delivering a corneal stimulus of 32 mA for 3 s. This current elicits psychomotor seizures in 97% of untreated animals. Seizures consist of a minimal clonic phase followed by stereotyped automatistic behaviors. Animals not showing such behaviors were considered protected. Toxicity was determined by the rotorod test. For this test, the animal is placed on a rotorod at 6 rpm following dosing. The animal is considered toxic if it falls off the rotorod three times in a 1 min period. The ED50, TD50 and confidence intervals were determined by probit analysis.

The test system of the next series is rotorod test. The experiment in a line: Toxicity by the rotorod test. Particulars: for TD50: rotorod, ip, probit analysis. It is filed as in vivo. From the text:
All compounds (FIG. 1) were screened in three whole mouse models: the maximal electroshock model (MES), the scMET test (pentylenetetrazole, Metrazol), and the 6 Hz psychomotor seizure model of partial epilepsy (32 mA). Adult male CF No 1 albino mice (26-30 g) were used for the 6 Hz test and 18-25 g mice were used in the MES and scMet tests. The animals are housed, fed, and handled in a manner consistent with the recommendations in the National Council Publication, “Guide for the Care and Use of Laboratory Animals”. […] All compounds were administered ip in polyethylene glycol, 30%.
The 6 Hz test (also known as the minimal clonic seizure, or psychomotor test) involved delivering a corneal stimulus of 32 mA for 3 s. […] Seizures consist of a minimal clonic phase followed by stereotyped automatistic behaviors. Animals not showing such behaviors were considered protected. Toxicity was determined by the rotorod test. For this test, the animal is placed on a rotorod at 6 rpm following dosing. The animal is considered toxic if it falls off the rotorod three times in a 1 min period. The ED50, TD50 and confidence intervals were determined by probit analysis.

The mark [3] stands for this setting: Mus musculus, 6 Hz (32 mA), probit analysis, read-out: ED50.

SMILES strings stand for the structures. Several values for one entry are separate records, joined by “and”; a condition that tells them apart may be missing. Identical values can stand only once. Like-named read-outs stand apart in the source and are kept apart here.

On to `CC(C)c1cc(C(O)C(F)(F)F)cc(Br)c1O` (stereo not drawn) [RM122, 2-Bromo-6-isopropyl-4-(2,2,2-trifluoro-1-hydroxy-ethyl)-phenol], for which the responders at 30 mg/kg in series [1] (0.5 h), in series [1] (4 h), in series [2] (0.5 h) and in series [2] (4 h) was 0% throughout. Further, the responders at 100 mg/kg in series [1] (0.5 h), in series [1] (4 h), in series [2] (0.5 h) and in series [2] (4 h) was 0% in each case. Besides, the responders at 300 mg/kg in series [1] (0.5 h), in series [1] (4 h), in series [2] (0.5 h) and in series [2] (4 h) was 0% throughout. In addition, the “MES protection” value in series [1] (any dose (30-300 mg/kg ip)) was “no MES protection”. In addition, the ED50 (commonly the midpoint of the dose-response relation) in the series with 6 Hz (32 mA) model (6 Hz (32 mA), probit analysis) amounted to 112.45 mg/kg; in the series with 6 Hz (32 mA) model (setting [3]) it was 112 mg/kg. The “complete protection, animals” value with 6 Hz (32 mA) model (100 mg/kg) was 4 of 4. For the same compound, in the series on rotorod test, the TD50 (in general, the dose at which the toxic effect under study appears in half of the subjects) was 403 mg/kg and 403.12 mg/kg.
Consider `CC(C)c1cc(C(O)C(F)(F)F)ccc1O` (stereo not drawn) [RM125, 2-iso-Propyl-4-(2,2,2-trifluoro-1-hydroxy-ethyl)-phenol], for which, in series [1] (300 mg/kg dose), the “MES protection” value is “some protection”. In addition, in series [1] (300 mg/kg dose), the “MES protection, time points after dosing” value is “protection at both 0.5 and 4 h”. Further, the responders at 30 mg/kg in series [1] (0.5 h), in series [1] (4 h), in series [2] (0.5 h) and in series [2] (4 h) was 0% each time. Moreover, the responders at 100 mg/kg in series [1] (0.25 h) was 0%; in series [1] (0.5 h), 0%; in series [1] (1 h), 33.3%; in series [1] (2 h), 33.3%; in series [1] (4 h), 0%; in series [1] (6 h), 0%. Moreover, the responders at 100 mg/kg in series [2] (0.5 h) and in series [2] (4 h) was 0% in each case. Further, the responders at 300 mg/kg in series [1] (0.5 h), in series [1] (4 h), in series [2] (0.5 h) and in series [2] (4 h) was 100% each time. In addition, the “scMET protection, time points after dosing” value in series [2] (300 mg/kg dose) is “protection at the highest 300 mg/kg dose at 0.5 and 4 h”. Besides, the ED50 in the series on 6 Hz (32 mA) model (6 Hz (32 mA), probit analysis) was found to be 84.12 mg/kg; in the series on 6 Hz (32 mA) model (setting [3]), 84 mg/kg. Moreover, the “complete protection, animals” value in the series on 6 Hz (32 mA) model (100 mg/kg) is on record as 4 of 4. Also, the “antiseizure activity in the 6 Hz model” value in the series with 6 Hz (32 mA) model is “relatively good antiseizure activity”. Besides, the TD50 with rotorod test came to 161.12 mg/kg.
For the compound `CCC(C)c1cc(C(O)C(F)(F)F)cc(Br)c1O` (stereo not drawn) [RM129, 2-Bromo-6-sec-Butyl-4-(2,2,2-trifluoro-1-hydroxy-ethyl)-phenol], the “MES protection” value in series [1] (300 mg/kg dose) is “some protection”. Further, the “MES protection, time points after dosing” value in series [1] (300 mg/kg dose) is given as “protected only at 0.5 h”. For the same compound, the responders at 30 mg/kg in series [1] (0.5 h), in series [1] (4 h), in series [2] (0.5 h) and in series [2] (4 h) was 0% throughout. The responders at 100 mg/kg in series [1] (0.25 h), in series [1] (0.5 h), in series [1] (1 h), in series [1] (4 h), in series [2] (0.5 h) and in series [2] (4 h) was 0% throughout. For the same compound, the responders at 300 mg/kg in series [1] (0.5 h) is 100%; in series [1] (4 h), 0%; in series [2] (0.5 h), 0%; in series [2] (4 h), 0%. For the same compound, in the series on 6 Hz (32 mA) model (100 mg/kg), the “complete protection, animals” value is 4 of 4. Moreover, it took a dose of 87.6 mg/kg to reach the 50% effect level in the series on 6 Hz (32 mA) model (Mus musculus) (ED50). In the series on rotorod test, this compound returned a TD50 of 144.4 mg/kg.
As to `CCC(C)c1cc(C(O)C(F)(F)F)ccc1O` (stereo not drawn) [RM131, 2-sec-Butyl-4-(2,2,2-trifluoro-1-hydroxy-ethyl)-phenol], the “MES protection” value in series [1] (300 mg/kg dose) was “some protection”. In addition, the “MES protection, time points after dosing” value in series [1] (300 mg/kg dose) is listed as “protected only at 0.5 h”. The responders at 30 mg/kg in series [1] (0.5 h), in series [1] (4 h), in series [2] (0.5 h) and in series [2] (4 h) was 0% throughout. Besides, the responders at 100 mg/kg in series [1] (0.5 h), in series [1] (4 h), in series [2] (0.5 h) and in series [2] (4 h) was 0% each time. Further, the responders at 300 mg/kg was found to be 100% in series [1] (0.5 h), 0% in series [1] (4 h), 100% in series [2] (0.5 h) and 0% in series [2] (4 h). Further, the 50% effective dose (ED50) in the series with 6 Hz (32 mA) model (6 Hz (32 mA), probit analysis) was determined as 53.85 mg/kg; with 6 Hz (32 mA) model (setting [3]), 53.8 mg/kg. Besides, the “complete protection, animals” value with 6 Hz (32 mA) model (100 mg/kg) was 4 of 4. In addition, the “antiseizure activity in the 6 Hz model” value in the series on 6 Hz (32 mA) model is recorded as “relatively good antiseizure activity”. Moreover, the TD50 with rotorod test is 86 mg/kg and 86.04 mg/kg.
For the compound `CCc1cc(C(O)C(F)(F)F)ccc1O` (stereo not drawn) [RM166, 2-Ethyl-4-(2,2,2-trifluoro-1-hydroxy-ethyl)-phenol], the responders at 30 mg/kg in series [1] (0.5 h), in series [1] (4 h), in series [2] (0.5 h) and in series [2] (4 h) was 0% in each case. In addition, the responders at 100 mg/kg in series [1] (0.5 h), in series [1] (4 h), in series [2] (0.5 h) and in series [2] (4 h) was 0% each time. For the same compound, the responders at 300 mg/kg in series [1] (0.5 h), in series [1] (4 h), in series [2] (0.5 h) and in series [2] (4 h) was 0% each time. Moreover, in series [1] (any dose (30-300 mg/kg ip)), the “MES protection” value is “no MES protection”. For the same compound, the “protective effects in the 6 Hz test” value with 6 Hz (32 mA) model (100 mg/kg, any time point from 0.25 to 4 h) is given as “no protective effects”. Further, the “Protective effects, number of animals protected/number of animals tested” value in the series on 6 Hz (32 mA) model (6 Hz (32 mA), 0.25 h) was 0/4; with 6 Hz (32 mA) model (6 Hz (32 mA), 0.5 h) it was 0/4; with 6 Hz (32 mA) model (6 Hz (32 mA), 1 h), 0/4; in the series with 6 Hz (32 mA) model (6 Hz (32 mA), 2 h), 0/4; with 6 Hz (32 mA) model (6 Hz (32 mA), 4 h), 1/4. Moreover, the “Toxicity, animals/number of animals tested” value with rotorod test (dose 100 mg/kg ip, 0.5 h) is reported as 0/8; in the series on rotorod test (dose 100 mg/kg ip, 4 h), 0/4; in the series on rotorod test (dose 30 ip, 0.5 h) it was 0/4; in the series on rotorod test (dose 30 ip, 4 h) it was 0/2; with rotorod test (dose 300 ip, 0.5 h), 0/4; in the series on rotorod test (dose 300 ip, 4 h), 0/2. Further, in the series with rotorod test (doses up to 300 mg/kg), the “evidence of toxicity” value is reported as “Neither RM170 nor RM166 showed any evidence of toxicity”.
